Measured values from patent publication US20080214599A1, “Use of Par-1/Par-4 Inhibitors for Treating or Preventing Vascular Diseases” (priority 2005, published 2008).

What was measured:
Format in all cases: in vivo, human
CD151+CD14 = assay: Flow cytometry, CD151+CD14 in patients undergoing coronary stenting; design: unit not given here
Procedure: (§1) The study sought to compare the antiplatelet properties of prasugrel and clopidogrel in the frame of a Phase 2 randomized trial. Specifically, nine patients undergoing coronary stenting were randomized to one of three arms of prasugrel (40-60-60 mg loading, and 7.5-10-15 mg maintenance daily dose), or clopidogrel (300 mg/75 mg). Aspirin and GP IIb/IIIa inhibitors were allowed.

PAR-1/PAR-4 (WEDE15) = assay: Flow cytometry, WEDE15 (PAR-1/PAR-4) in patients undergoing coronary stenting
Procedure: as §1

Thrombospondin = assay: Flow cytometry, platelet thrombospondin in patients undergoing coronary stenting; design: Thrombospondin, flow cytometry: unit not given here
Procedure: as §1

PAR-1/PAR-4 (SPAN12) = assay: Flow cytometry, SPAN12 (PAR-1/PAR-4) in patients undergoing coronary stenting
Procedure: as §1

CD31 (PECAM-1) = assay: Flow cytometry, platelet surface expression of CD31 (PECAM-1) in patients undergoing coronary stenting
Procedure: as §1

CD165 (GP37) = assay: Flow cytometry, platelet CD165 (GP37) in patients undergoing coronary stenting; design: CD165 (GP37), flow cytometry: unit not given here
Procedure: as §1

CD62p (P-selectin) = assay: Flow cytometry, platelet surface expression of CD62p (P-selectin) in patients undergoing coronary stenting; design: CD62p (P-selectin), flow cytometry: unit not given here
Procedure: as §1

CD40 ligand = assay: Flow cytometry, platelet CD40 ligand in patients undergoing coronary stenting; design: CD40 ligand, flow cytometry: unit not given here
Procedure: as §1

CD42 (GP-Ib) = assay: Flow cytometry, platelet surface expression of CD42 (GP-Ib) in patients undergoing coronary stenting; design: CD42 (GP-Ib), flow cytometry: unit not given here
Procedure: as §1

[1] = system: platelets (ADP-induced aggregation); assay: ADP-induced platelet aggregation in stented patients; details: independent of the dosing regimen; vs patients treated with clopidogrel
Procedure: (§2) The study sought to compare the antiplatelet properties of prasugrel and clopidogrel in the frame of a Phase 2 randomized trial. Specifically, nine patients undergoing coronary stenting were randomized to one of three arms of prasugrel (40-60-60 mg loading, and 7.5-10-15 mg maintenance daily dose), or clopidogrel (300 mg/75 mg). Aspirin and GP IIb/IIIa inhibitors were allowed. […] Applicants believe the above results are significant and establish a correlation between use of CS-747 (prasugrel) and inhibition of the activity or activation of PAR-1 and/or PAR-4 receptors. […] The correlations or trends shown in table 1 are independent of aspirin or Gb-11b inhibitor use by some patients at baseline. Confounding effects by aspirin or GB-IIb/IIIA use at baseline should be absent at 30 days.

[2] = system: GPIIb/IIIa activity with PAC-1 antibody; assay: GPIIb/IIIa activity with PAC-1 antibody in stented patients; details: independent of the dosing regimen; vs patients treated with clopidogrel
Procedure: as §2

GPIIb/IIIa antigen = assay: Surface expression of GPIIb/IIIa antigen in stented patients; details: independent of the dosing regimen; vs patients treated with clopidogrel
Procedure: as §2

platelets = assay: Ultegra Analyzer platelet function in stented patients; details: independent of the dosing regimen; vs patients treated with clopidogrel
Procedure: as §2

[3] = system: platelets (collagen-induced aggregation); assay: Collagen-induced platelet aggregation in stented patients; details: independent of the dosing regimen; vs patients treated with clopidogrel
Procedure: as §2

[4] = 30 days after stent implantation
[5] = Baseline, patients undergoing coronary stenting
[6] = independent of the dosing regimen, vs patients treated with clopidogrel

SMILES: COC(=O)[C@H](c1ccccc1Cl)N1CCc2sccc2C1 [clopidogrel, reference compound]
- CD151+CD14, flow cytometry (CD151+CD14; 4 hr after stent implantation): 62.6 ± 14.4
- CD151+CD14, flow cytometry (CD151+CD14; 24 hr after stent implantation): 69.5 ± 22.4
- CD151+CD14, flow cytometry (CD151+CD14; [4]): 66.0 ± 9.5
- CD151+CD14, flow cytometry (CD151+CD14; [5]): 67.1 ± 14.5
- WEDE15 (PAR-1/PAR-4), flow cytometry (PAR-1/PAR-4 (WEDE15); 4 hr after stent implantation): 20.9 ± 9.3
- WEDE15 (PAR-1/PAR-4), flow cytometry (PAR-1/PAR-4 (WEDE15); 24 hr after stent implantation): 25.7 ± 9.6
- WEDE15 (PAR-1/PAR-4), flow cytometry (PAR-1/PAR-4 (WEDE15); [4]): 16.5 ± 3.2
- WEDE15 (PAR-1/PAR-4), flow cytometry (PAR-1/PAR-4 (WEDE15); [5]): 30.2 ± 10.9
- Thrombospondin, flow cytometry (Thrombospondin; 4 hr after stent implantation): 6.7 ± 2.0
- Thrombospondin, flow cytometry (Thrombospondin; 24 hr after stent implantation): 7.8 ± 2.8
- Thrombospondin, flow cytometry (Thrombospondin; [4]): 8.1 ± 1.3
- Thrombospondin, flow cytometry (Thrombospondin; [5]): 7.1 ± 2.0
- SPAN12 (PAR-1/PAR-4), flow cytometry (PAR-1/PAR-4 (SPAN12); 4 hr after stent implantation): 16.2 ± 5.0
- SPAN12 (PAR-1/PAR-4), flow cytometry (PAR-1/PAR-4 (SPAN12); 24 hr after stent implantation): 17.1 ± 5.3
- SPAN12 (PAR-1/PAR-4), flow cytometry (PAR-1/PAR-4 (SPAN12); [4]): 6.2 ± 0.9
- SPAN12 (PAR-1/PAR-4), flow cytometry (PAR-1/PAR-4 (SPAN12); [5]): 18.0 ± 4.8
- CD31 (PECAM-1), flow cytometry (CD31 (PECAM-1); 4 hr after stent implantation): 41.6 ± 17.3
- CD31 (PECAM-1), flow cytometry (CD31 (PECAM-1); 24 hr after stent implantation): 38.0 ± 18.9
- CD31 (PECAM-1), flow cytometry (CD31 (PECAM-1); [4]): 58.6 ± 8.4
- CD31 (PECAM-1), flow cytometry (CD31 (PECAM-1); [5]): 62.9 ± 12.2
- CD165 (GP37), flow cytometry (CD165 (GP37); 4 hr after stent implantation): 17.8 ± 5.8
- CD165 (GP37), flow cytometry (CD165 (GP37); 24 hr after stent implantation): 18.3 ± 4.2
- CD165 (GP37), flow cytometry (CD165 (GP37); [4]): 19.7 ± 3.0
- CD165 (GP37), flow cytometry (CD165 (GP37); [5]): 23.9 ± 5.2
- CD62p (P-selectin), flow cytometry (CD62p (P-selectin); 4 hr after stent implantation): 10.0 ± 3.5
- CD62p (P-selectin), flow cytometry (CD62p (P-selectin); 24 hr after stent implantation): 9.8 ± 3.6
- CD62p (P-selectin), flow cytometry (CD62p (P-selectin); [4]): 9.6 ± 1.4
- CD62p (P-selectin), flow cytometry (CD62p (P-selectin); [5]): 10.4 ± 3.4
- CD40 ligand, flow cytometry (CD40 ligand; 4 hr after stent implantation): 4.1 ± 1.3
- CD40 ligand, flow cytometry (CD40 ligand; 24 hr after stent implantation): 4.2 ± 1.3
- CD40 ligand, flow cytometry (CD40 ligand; [4]): 6.5 ± 1.6
- CD40 ligand, flow cytometry (CD40 ligand; [5]): 5.5 ± 1.3
- CD42 (GP-Ib), flow cytometry (CD42 (GP-Ib); 4 hr after stent implantation): 134.2 ± 37.3
- CD42 (GP-Ib), flow cytometry (CD42 (GP-Ib); 24 hr after stent implantation): 129.8 ± 37.6
- CD42 (GP-Ib), flow cytometry (CD42 (GP-Ib); [4]): 168.0 ± 48.0
- CD42 (GP-Ib), flow cytometry (CD42 (GP-Ib); [5]): 135.2 ± 35.1

SMILES: CC(=O)Oc1cc2c(s1)CCN(C(C(=O)C1CC1)c1ccccc1F)C2 (stereo not drawn) [prasugrel, 2-acetoxy-5-(α-cyclopropylcarbonyl-2-fluorobenzyl)-4,5,6,7-tetrahydrothieno[3,2-c]pyridine]
- CD151+CD14, flow cytometry (CD151+CD14; 4 hr after stent implantation): 60.1 ± 18.9
- CD151+CD14, flow cytometry (CD151+CD14; 24 hr after stent implantation): 62.7 ± 29.2
- CD151+CD14, flow cytometry (CD151+CD14; [4]): 61.8 ± 23.0
- CD151+CD14, flow cytometry (CD151+CD14; [5]): 73.0 ± 11.1
- WEDE15 (PAR-1/PAR-4), flow cytometry (PAR-1/PAR-4 (WEDE15); 4 hr after stent implantation): 17.0 ± 6.2
- WEDE15 (PAR-1/PAR-4), flow cytometry (PAR-1/PAR-4 (WEDE15); 24 hr after stent implantation): 19.6 ± 8.4
- WEDE15 (PAR-1/PAR-4), flow cytometry (PAR-1/PAR-4 (WEDE15); [4]): 15.3 ± 5.9
- WEDE15 (PAR-1/PAR-4), flow cytometry (PAR-1/PAR-4 (WEDE15); [5]): 37.0 ± 9.8
- Platelet inhibition by ADP-induced aggregation, compared with clopidogrel [1]: more potent platelet inhibition
- Thrombospondin, flow cytometry (Thrombospondin; 4 hr after stent implantation): 6.4 ± 1.1
- Thrombospondin, flow cytometry (Thrombospondin; 24 hr after stent implantation): 6.7 ± 1.7
- Thrombospondin, flow cytometry (Thrombospondin; [4]): 4.0 ± 0.7
- Thrombospondin, flow cytometry (Thrombospondin; [5]): 7.3 ± 2.2
- Platelet inhibition by surface expression of thrombospondin receptor, compared with clopidogrel (Thrombospondin; [6]): more potent platelet inhibition
- Platelet inhibition by GPIIb/IIIa activity with PAC-1 antibody, compared with clopidogrel [2]: more potent platelet inhibition
- SPAN12 (PAR-1/PAR-4), flow cytometry (PAR-1/PAR-4 (SPAN12); 4 hr after stent implantation): 13.3 ± 2.5
- SPAN12 (PAR-1/PAR-4), flow cytometry (PAR-1/PAR-4 (SPAN12); 24 hr after stent implantation): 12.0 ± 2.7
- SPAN12 (PAR-1/PAR-4), flow cytometry (PAR-1/PAR-4 (SPAN12); [4]): 6.6 ± 1.7
- SPAN12 (PAR-1/PAR-4), flow cytometry (PAR-1/PAR-4 (SPAN12); [5]): 19.5 ± 5.4
- CD31 (PECAM-1), flow cytometry (CD31 (PECAM-1); 4 hr after stent implantation): 52.5 ± 29.3
- CD31 (PECAM-1), flow cytometry (CD31 (PECAM-1); 24 hr after stent implantation): 52.8 ± 28.7
- CD31 (PECAM-1), flow cytometry (CD31 (PECAM-1); [4]): 24.6 ± 24.4
- CD31 (PECAM-1), flow cytometry (CD31 (PECAM-1); [5]): 69.9 ± 19.3
- Platelet inhibition by surface expression of PECAM-1, compared with clopidogrel (CD31 (PECAM-1); [6]): more potent platelet inhibition
- CD165 (GP37), flow cytometry (CD165 (GP37); 4 hr after stent implantation): 17.8 ± 5.6
- CD165 (GP37), flow cytometry (CD165 (GP37); 24 hr after stent implantation): 15.8 ± 5.7
- CD165 (GP37), flow cytometry (CD165 (GP37); [4]): 12.2 ± 2.8
- CD165 (GP37), flow cytometry (CD165 (GP37); [5]): 24.7 ± 2.8
- Platelet inhibition by surface expression of GP37, compared with clopidogrel (CD165 (GP37); [6]): more potent platelet inhibition
- CD62p (P-selectin), flow cytometry (CD62p (P-selectin); 4 hr after stent implantation): 8.9 ± 3.3
- CD62p (P-selectin), flow cytometry (CD62p (P-selectin); 24 hr after stent implantation): 7.9 ± 1.4
- CD62p (P-selectin), flow cytometry (CD62p (P-selectin); [4]): 5.2 ± 2.3
- CD62p (P-selectin), flow cytometry (CD62p (P-selectin); [5]): 10.8 ± 4.1
- Platelet inhibition by surface expression of P-selectin, compared with clopidogrel (CD62p (P-selectin); [6]): more potent platelet inhibition
- Platelet inhibition by surface expression of GPIIb/IIIa antigen, compared with clopidogrel (GPIIb/IIIa antigen): more potent platelet inhibition
- CD40 ligand, flow cytometry (CD40 ligand; 4 hr after stent implantation): 4.8 ± 1.4
- CD40 ligand, flow cytometry (CD40 ligand; 24 hr after stent implantation): 4.6 ± 1.1
- CD40 ligand, flow cytometry (CD40 ligand; [4]): 3.7 ± 1.3
- CD40 ligand, flow cytometry (CD40 ligand; [5]): 6.9 ± 0.8
- Platelet inhibition by surface expression of CD40-ligand, compared with clopidogrel (CD40 ligand; [6]): more potent platelet inhibition
- Platelet inhibition by Ultegra Analyzer, compared with clopidogrel (platelets): more potent platelet inhibition
- CD42 (GP-Ib), flow cytometry (CD42 (GP-Ib); 4 hr after stent implantation): 138.7 ± 38.3
- CD42 (GP-Ib), flow cytometry (CD42 (GP-Ib); 24 hr after stent implantation): 154.0 ± 39.6
- CD42 (GP-Ib), flow cytometry (CD42 (GP-Ib); [4]): 110.0 ± 47.7
- CD42 (GP-Ib), flow cytometry (CD42 (GP-Ib); [5]): 145.9 ± 35.5
- Platelet inhibition by surface expression of GPIb, compared with clopidogrel (CD42 (GP-Ib); [6]): more potent platelet inhibition
- Platelet inhibition by collagen-induced aggregation, compared with clopidogrel [3]: more potent platelet inhibition
